pIC50: −log10 of the molar value.
Tests used:
Type in all cases: biochemical
B-Raf V600E = target: T1, B-Raf V600E (Homo sapiens, UniProt P15056, V600E); assay: AlphaScreen kinase assay, B-Raf V600E; conditions: read-out: IC50, activity toward kinase B-Raf V600E
T1 construct: P4254. pFastBacBD-CDC37 BRAF D437-K722-X, V600E; His6 with pFastBac HT leader (TEV site) (N); made in house; host or cells: Sf9 (baculovirus; chaperone CDC37 co-expressed)

FGFR1 = target: T2, FGFR1 (Homo sapiens, UniProt P11362, C488A/C584S); assay: AlphaScreen kinase assay, FGFR1; conditions: read-out: IC50, activity toward kinase FGFR
T2 construct: P1351.pET N6 BI-PTP FGFR A458-E765-X C488A, C584S; made in house; host or cells: E. coli (PTP1B co-expressed)
Source text: AlphaScreen assay was used to screen additional kinases. The assay is similarly dependent on the phosphorylation of a peptide substrate. In this assay, an antibody that recognizes phosphorylated substrate is bound to an acceptor bead. The peptide substrate is attached to biotin, which binds to a donor head that contains streptavidin. Thus phosphorylated substrate is bound by antibody and streptavidin, bringing the donor and acceptor heads into close proximity when kinase is not inhibited. The donor produces singlet oxygen which results in emission from the acceptor when they are in close proximity. Conversely, when kinase is inhibited, the donor and acceptor beads are not associated and the emission from the acceptor is reduced.
AlphaScreen assays were done using compounds dissolved in DMSO to a concentration of 20 mM. The compounds were diluted accordingly to the desired final concentrations in each sample well, using 1:3 serial dilution for a total of 8 concentration points. Plates were prepared such that each kinase reaction is 20 μl in 1× kinase buffer, 5% DMSO and 10 μM ATP. After incubation of the kinase reaction for 1 hour at room temperature, 5 μl of donor beads in stop buffer (50 mM EDTA in 1× kinase buffer) was added, the sample was mixed and incubated for 20 minutes at room temperature before adding 5 μl of acceptor beads in stop buffer. The samples were incubated for 60 minutes at room temperature and the signal per well was read on AlphaQuest reader.

Jnk1 = target: T3, Jnk1 (Homo sapiens, UniProt P45983); assay: AlphaScreen kinase assay, Jnk1; conditions: read-out: IC50, activity toward kinase Jnk1
T3 construct: purchased Upstate Biotechnology

Jnk2 = target: T4, Jnk2 (Homo sapiens, UniProt P45984); assay: AlphaScreen kinase assay, Jnk2; conditions: read-out: IC50, activity toward kinase Jnk2
T4 construct: purchased Roche Protein Expression Group (Indianapolis, IN)
Outline: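 Biotinylated peptide substrate is phosphorylated by kinase; anti-phosphopeptide antibody on acceptor beads and streptavidin donor beads bring emission when substrate is phosphorylated. Inhibition lowers acceptor signal. Compounds from 20 mM DMSO stock tested as 8-point 1:3 serial dilutions.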

Jnk3 = target: T5, Jnk3 (Homo sapiens, UniProt P53779); assay: AlphaScreen kinase assay, Jnk3; conditions: read-out: IC50, activity toward kinase Jnk3
T5 construct: purchased Upstate Biotechnology

Kdr = target: T6, Kdr (Homo sapiens, UniProt P35968); assay: Z'-Lyte FRET kinase assay (Invitrogen), Kdr; conditions: read-out: IC50, activity toward kinase Kdr
T6 construct: purchased Invitrogen (assay run by Invitrogen)
Source text: For example, direct radiometric, indirect FRET or AlphaScreen assays may be used to assess the level of phosphorylation of a substrate in the presence of test compounds in order to determine the inhibitory affect of the compound on the kinase. […] For these assays, compounds of the invention were screened by Invitrogen using Z′-Lyte™ kinase assay.
Briefly, the Invitrogen kinase assay involves use of a specific peptide substrate optimized for each kinase, containing a fluorophore at each end that make up the FRET pair. The peptide sensitivity to proteolytic cleavage depends on phosphorylation of the peptide. Non-phosphorylated peptide is cleaved by a protease while peptide phosphorylated by the kinase is not cleaved. Cleavage of the peptide disrupts the FRET between the donor (coumarin) and acceptor (fluorescein) fluorophores, resulting in an increase in the ratio of donor emission to acceptor emission. The emission ratio of coumarin to fluorescein is used to assess the reaction progress. […] Thus, the assay involves a kinase reaction in the presence of varying concentrations of a given compound, a development reaction with site specific protease, and detection of the fluorescent emission ratio of coumarin and fluorscein. […] Reaction conditions for each kinase are determined to provide optimal reaction times, incubation temperature, kinase and ATP concentrations. Test samples are made up in 1× kinase buffer (50 mM HEPES pH 7.5, 50 mM MgCl2, 5 mM EGTA, 0.05% BRIJ-35) and compound at desired concentration prepared in DMSO such that the final DMSO is 1%. […] All kinase except for MAP2K1 were at 10 μM ATP in the kinase reaction, while MAP2K1 was at 100 μM. Samples are mixed and the kinase reaction is incubated 1 hour at room temperature, after which 5 μl of development solution is added and mixed. After incubation for another 1 hour at room temperature, 5 μl of stop reagent is added to each sample and mixed. The fluorescence signals are measured to determine the emission ratio.

Ret = target: T7, Ret (Homo sapiens, UniProt P07949); assay: AlphaScreen kinase assay, Ret; conditions: read-out: IC50, activity toward kinase Ret
T7 construct: P1378.pET-SF BI-PTP RET H661-R1012 HIS; made in house
T7 sequence (P07949 with tags, fused parts or gaps): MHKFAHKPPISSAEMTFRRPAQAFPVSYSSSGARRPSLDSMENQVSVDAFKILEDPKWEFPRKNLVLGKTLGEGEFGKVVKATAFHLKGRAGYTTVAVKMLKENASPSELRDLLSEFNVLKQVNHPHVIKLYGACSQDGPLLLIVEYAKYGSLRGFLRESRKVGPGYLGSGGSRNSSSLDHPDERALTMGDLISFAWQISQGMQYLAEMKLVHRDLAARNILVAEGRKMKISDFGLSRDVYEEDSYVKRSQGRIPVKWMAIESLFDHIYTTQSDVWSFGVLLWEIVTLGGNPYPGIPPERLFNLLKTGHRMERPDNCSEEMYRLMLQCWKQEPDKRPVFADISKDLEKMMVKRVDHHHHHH

B-Raf = target: T8, B-Raf (Homo sapiens, UniProt P15056); assay: AlphaScreen kinase assay, B-Raf; conditions: read-out: IC50, activity toward kinase B-Raf
T8 construct: purchased Upstate Biotechnology

Fak = target: T9, Fak (Homo sapiens, UniProt Q05397); assay: AlphaScreen kinase assay, Fak; conditions: read-out: IC50, activity toward kinase Fak
T9 construct: P1358.pFastBacHtb FAK S411-Q686-X; His6 with pFastBacHTb leader (TEV site) (N); made in house; host or cells: Sf9 (baculovirus)

Flt1 = target: T10, Flt1 (Homo sapiens, UniProt P17948); assay: AlphaScreen kinase assay, Flt1; conditions: read-out: IC50, activity toward kinase Flt1
T10 construct: P1826.pETN6 BI-PTP FLT1 M799-D1165-X WT; His6 (N); made in house; host or cells: E. coli (PTP1B co-expressed)
T10 sequence (P17948 with tags, fused parts or gaps): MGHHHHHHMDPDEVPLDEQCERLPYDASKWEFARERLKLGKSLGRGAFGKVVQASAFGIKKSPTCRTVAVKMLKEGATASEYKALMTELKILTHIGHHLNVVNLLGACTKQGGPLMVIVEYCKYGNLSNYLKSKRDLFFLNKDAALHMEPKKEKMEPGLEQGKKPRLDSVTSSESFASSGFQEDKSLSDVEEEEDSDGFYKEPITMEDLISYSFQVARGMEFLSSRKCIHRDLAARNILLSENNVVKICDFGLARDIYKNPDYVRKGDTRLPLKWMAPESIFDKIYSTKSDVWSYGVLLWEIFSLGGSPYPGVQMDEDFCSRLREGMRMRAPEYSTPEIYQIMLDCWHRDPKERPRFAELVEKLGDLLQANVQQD

Fms = target: T11, Fms (Homo sapiens, UniProt P07333); assay: AlphaScreen kinase assay, Fms; conditions: read-out: IC50, activity toward kinase Fms
T11 construct: purchased Upstate Biotechnology

Kit = target: T12, Kit (Homo sapiens, UniProt P10721); assay: AlphaScreen kinase assay, Kit; conditions: read-out: IC50, activity toward kinase Kit
T12 construct: P1332.N6 BI PTP KIT M552-K948-X COD; His6 (N); made in house; host or cells: E. coli (PTP1B co-expressed)

Src = target: T13, Src (Homo sapiens, UniProt P12931); assay: AlphaScreen kinase assay, Src; conditions: read-out: IC50, activity toward kinase Src
T13 construct: P1144. pET-N6 BI-PTP SRC V86-L536-X; made in house

c-Raf-1 = target: T14, c-Raf-1 (Homo sapiens, UniProt P04049); assay: AlphaScreen kinase assay, c-Raf-1; conditions: read-out: IC50, activity toward kinase c-Raf-1
T14 construct: purchased Upstate Biotechnology

Measured: pIC50

T2 sequence (P11362 458-765 C488A/C584S): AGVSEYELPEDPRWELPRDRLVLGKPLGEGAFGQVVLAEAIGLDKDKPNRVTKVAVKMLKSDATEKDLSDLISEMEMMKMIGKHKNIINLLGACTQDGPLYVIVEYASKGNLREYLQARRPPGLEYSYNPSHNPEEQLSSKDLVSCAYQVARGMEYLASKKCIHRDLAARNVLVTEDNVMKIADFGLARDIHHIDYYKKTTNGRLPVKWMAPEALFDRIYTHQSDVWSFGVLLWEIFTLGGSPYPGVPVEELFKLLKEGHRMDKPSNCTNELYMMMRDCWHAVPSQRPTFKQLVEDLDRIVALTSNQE
T3 sequence (P45983 whole entry): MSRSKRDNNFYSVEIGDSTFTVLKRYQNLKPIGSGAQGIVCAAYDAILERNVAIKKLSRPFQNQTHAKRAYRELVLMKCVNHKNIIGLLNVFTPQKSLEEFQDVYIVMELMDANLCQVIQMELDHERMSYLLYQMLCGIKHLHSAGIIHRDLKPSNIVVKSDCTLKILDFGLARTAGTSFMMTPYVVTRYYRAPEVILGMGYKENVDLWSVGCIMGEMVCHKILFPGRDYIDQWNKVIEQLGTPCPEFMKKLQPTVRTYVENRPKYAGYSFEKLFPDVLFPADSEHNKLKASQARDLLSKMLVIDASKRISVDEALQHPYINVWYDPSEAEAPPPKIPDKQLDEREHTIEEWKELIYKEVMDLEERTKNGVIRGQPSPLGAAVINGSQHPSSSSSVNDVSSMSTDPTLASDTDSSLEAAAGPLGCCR
T1 sequence (P15056 with tags, fused parts or gaps V600E): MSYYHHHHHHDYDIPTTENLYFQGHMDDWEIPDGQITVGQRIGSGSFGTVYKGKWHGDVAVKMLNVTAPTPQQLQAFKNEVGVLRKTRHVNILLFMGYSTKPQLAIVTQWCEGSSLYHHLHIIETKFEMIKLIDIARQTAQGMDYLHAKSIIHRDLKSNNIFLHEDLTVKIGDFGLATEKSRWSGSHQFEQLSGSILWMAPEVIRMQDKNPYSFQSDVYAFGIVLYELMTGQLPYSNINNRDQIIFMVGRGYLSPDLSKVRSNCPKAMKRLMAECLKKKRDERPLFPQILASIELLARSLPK
T5 sequence (P53779 whole entry): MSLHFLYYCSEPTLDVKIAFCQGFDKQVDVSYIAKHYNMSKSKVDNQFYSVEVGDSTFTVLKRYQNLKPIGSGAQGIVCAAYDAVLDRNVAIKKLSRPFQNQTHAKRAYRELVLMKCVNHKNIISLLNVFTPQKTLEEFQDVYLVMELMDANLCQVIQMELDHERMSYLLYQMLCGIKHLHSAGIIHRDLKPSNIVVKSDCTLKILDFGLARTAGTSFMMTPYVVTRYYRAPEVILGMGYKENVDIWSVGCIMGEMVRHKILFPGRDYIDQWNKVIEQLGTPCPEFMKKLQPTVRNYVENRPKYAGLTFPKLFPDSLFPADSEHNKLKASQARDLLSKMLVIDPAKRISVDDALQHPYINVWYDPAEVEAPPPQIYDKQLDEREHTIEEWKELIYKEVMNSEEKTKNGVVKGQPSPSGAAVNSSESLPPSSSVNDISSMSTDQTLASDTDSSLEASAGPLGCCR
T8 sequence (P15056 whole entry): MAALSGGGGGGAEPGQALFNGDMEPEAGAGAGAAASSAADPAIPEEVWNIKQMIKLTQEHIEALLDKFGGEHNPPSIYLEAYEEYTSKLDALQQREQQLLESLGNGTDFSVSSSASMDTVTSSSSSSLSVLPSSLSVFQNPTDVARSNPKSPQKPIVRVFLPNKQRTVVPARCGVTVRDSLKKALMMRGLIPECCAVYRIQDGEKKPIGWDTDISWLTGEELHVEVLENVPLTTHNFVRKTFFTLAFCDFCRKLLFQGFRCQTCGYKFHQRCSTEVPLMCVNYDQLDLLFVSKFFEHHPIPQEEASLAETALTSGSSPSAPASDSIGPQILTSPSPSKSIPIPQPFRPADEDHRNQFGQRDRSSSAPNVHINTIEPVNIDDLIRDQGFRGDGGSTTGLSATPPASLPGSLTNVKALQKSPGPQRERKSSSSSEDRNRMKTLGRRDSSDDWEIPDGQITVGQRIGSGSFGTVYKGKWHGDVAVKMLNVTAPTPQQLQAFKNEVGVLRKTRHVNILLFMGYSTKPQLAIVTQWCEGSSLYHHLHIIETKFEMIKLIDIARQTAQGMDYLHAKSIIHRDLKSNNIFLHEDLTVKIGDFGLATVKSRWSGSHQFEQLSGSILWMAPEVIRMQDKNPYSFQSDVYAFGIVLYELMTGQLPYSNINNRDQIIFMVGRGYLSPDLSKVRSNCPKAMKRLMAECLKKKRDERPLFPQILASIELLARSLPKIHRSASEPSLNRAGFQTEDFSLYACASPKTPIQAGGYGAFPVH
T4 sequence (P45984 whole entry): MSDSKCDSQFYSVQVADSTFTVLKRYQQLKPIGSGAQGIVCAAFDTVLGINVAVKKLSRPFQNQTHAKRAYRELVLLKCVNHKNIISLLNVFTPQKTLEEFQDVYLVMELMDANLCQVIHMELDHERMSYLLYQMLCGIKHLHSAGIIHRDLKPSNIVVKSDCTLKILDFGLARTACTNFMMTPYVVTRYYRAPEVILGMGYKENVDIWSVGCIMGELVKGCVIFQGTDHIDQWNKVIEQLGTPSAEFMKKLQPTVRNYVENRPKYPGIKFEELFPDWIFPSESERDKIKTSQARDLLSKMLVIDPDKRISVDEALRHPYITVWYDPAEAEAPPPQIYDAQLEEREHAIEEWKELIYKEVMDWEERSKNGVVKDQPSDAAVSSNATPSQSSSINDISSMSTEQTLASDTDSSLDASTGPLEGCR
T11 sequence (P07333 20-972): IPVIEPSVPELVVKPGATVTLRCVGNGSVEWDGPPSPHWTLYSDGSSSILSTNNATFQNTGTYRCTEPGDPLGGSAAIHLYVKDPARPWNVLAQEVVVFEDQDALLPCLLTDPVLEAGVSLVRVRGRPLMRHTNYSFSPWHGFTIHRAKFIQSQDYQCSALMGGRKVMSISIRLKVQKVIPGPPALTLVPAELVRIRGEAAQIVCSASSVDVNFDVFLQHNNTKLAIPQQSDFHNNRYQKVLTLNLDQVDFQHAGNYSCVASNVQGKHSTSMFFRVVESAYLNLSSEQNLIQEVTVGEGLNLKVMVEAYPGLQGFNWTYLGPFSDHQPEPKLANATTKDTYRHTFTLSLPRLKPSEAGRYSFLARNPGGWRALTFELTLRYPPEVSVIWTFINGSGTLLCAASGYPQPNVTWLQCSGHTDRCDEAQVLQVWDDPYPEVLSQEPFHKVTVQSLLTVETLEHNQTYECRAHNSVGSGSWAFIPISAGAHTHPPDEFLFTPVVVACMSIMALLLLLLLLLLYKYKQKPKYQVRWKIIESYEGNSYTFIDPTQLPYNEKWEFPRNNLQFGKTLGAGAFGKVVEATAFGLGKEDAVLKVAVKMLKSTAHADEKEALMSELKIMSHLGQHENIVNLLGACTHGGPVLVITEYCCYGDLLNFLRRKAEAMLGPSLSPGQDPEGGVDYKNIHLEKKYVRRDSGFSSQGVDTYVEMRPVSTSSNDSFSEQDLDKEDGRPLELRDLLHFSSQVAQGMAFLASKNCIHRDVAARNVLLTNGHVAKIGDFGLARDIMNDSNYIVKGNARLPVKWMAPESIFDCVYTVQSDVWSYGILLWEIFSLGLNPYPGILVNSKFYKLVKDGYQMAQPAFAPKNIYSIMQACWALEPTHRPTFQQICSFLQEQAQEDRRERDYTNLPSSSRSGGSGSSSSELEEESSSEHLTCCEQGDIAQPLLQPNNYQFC
T12 sequence (P10721 with tags, fused parts or gaps): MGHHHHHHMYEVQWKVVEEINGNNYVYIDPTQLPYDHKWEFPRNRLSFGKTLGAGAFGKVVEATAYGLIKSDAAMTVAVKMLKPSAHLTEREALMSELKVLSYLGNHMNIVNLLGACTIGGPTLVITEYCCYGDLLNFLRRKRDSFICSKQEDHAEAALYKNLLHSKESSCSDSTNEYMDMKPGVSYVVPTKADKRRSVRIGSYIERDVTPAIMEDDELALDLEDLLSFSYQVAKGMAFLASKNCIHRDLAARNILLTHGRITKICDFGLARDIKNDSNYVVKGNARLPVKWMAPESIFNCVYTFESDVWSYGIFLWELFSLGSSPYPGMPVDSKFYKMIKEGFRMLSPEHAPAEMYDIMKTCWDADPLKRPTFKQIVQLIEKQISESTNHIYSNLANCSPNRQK
T13 sequence (P12931 with tags, fused parts or gaps): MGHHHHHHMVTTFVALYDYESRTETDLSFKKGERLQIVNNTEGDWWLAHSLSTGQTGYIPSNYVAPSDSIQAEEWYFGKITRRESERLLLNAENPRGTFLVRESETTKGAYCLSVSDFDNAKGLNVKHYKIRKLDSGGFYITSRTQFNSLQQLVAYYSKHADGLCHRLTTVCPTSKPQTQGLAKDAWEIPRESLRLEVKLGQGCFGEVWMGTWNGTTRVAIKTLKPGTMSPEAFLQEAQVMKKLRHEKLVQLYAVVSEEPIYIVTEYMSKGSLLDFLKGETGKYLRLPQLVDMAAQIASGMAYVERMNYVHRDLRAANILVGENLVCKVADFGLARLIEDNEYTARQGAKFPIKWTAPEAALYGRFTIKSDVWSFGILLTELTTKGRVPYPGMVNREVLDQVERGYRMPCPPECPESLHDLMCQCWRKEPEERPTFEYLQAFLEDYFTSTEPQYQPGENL
T9 sequence (Q05397 411-686): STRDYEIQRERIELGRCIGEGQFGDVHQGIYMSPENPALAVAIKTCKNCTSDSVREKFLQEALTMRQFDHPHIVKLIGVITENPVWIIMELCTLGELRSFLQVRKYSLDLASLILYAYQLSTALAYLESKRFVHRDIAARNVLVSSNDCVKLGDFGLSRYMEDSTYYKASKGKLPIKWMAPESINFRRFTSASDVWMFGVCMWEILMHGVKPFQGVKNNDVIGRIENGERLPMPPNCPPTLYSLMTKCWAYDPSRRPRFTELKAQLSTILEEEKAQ

CS(=O)(=O)Nc1ccc(F)c(C(=O)c2c[nH]c3ncc(-c4ccccc4)cc23)c1 [Compound P-0308, N-[4-Fluoro-3-(5-phenyl-1H-pyrrolo[2,3-b]pyridine-3-carbonyl)-phenyl]-methanesulfonamide]
≥ 5.00: B-Raf V600E | FGFR1 | Jnk1 | Jnk2 | Jnk3 | Kdr | Ret

CCCCNC(=O)Nc1cccc(C(=O)c2c[nH]c3ncc(-c4cccnc4)cc23)c1 [Compound P-1445, 1-Butyl-3-[3-(5-pyridin-3-yl-1H-pyrrolo[2,3-b]pyridine-3-carbonyl)-phenyl]-urea]
not listed: Kdr | Ret | c-Raf-1
≥ 5.00: all other assays above

CCCCNC(=O)Nc1cccc(Cc2c[nH]c3ncc(-c4cccnc4)cc23)c1 [Compound P-1447, 1-butyl-3-[3-(5-pyridin-3-yl-1H-pyrrolo[2,3-b]pyridin-3-ylmethyl)-phenyl]-urea]
not listed: Kdr | Ret | c-Raf-1
≥ 5.00: all other assays above

CCCS(=O)(=O)Nc1ccc(F)c(C(=O)c2c[nH]c3ncc(-c4ccc(C(=O)N(C)C)cc4)cc23)c1F [Compound P-1547, 4-{3-[2,6-Difluoro-3-(propane-1-sulfonylamino)-benzoyl]-1H-pyrrolo[2,3-b]pyridin-5-yl}-N,N-dimethyl-benzamide]
not listed: Kdr | Ret | Fak | Src
≥ 5.00: all other assays above

CCCS(=O)(=O)Nc1ccc(F)c(C(=O)c2c[nH]c3ncc(-c4ccc(C(=O)N5CCOCC5)cc4)cc23)c1F [Compound P-1548, Propane-1-sulfonic acid (2,4-difluoro-3-{5-[4-(morpholine-4-carbonyl)-phenyl]-1H-pyrrolo[2,3]-pyridine-3-carbonyl}-phenyl)-amide]
not listed: Kdr | Ret | Fak | Src | c-Raf-1
≥ 5.00: all other assays above

O=C(NCc1ccccc1)Nc1cccc(C(=O)c2c[nH]c3ncc(-c4cccnc4)cc23)c1 [Compound P-1554, 1-Benzyl-3-[3-(5-pyridin-3-yl-1H-pyrrolo[2,3-b]pyridine-3-carbonyl)-phenyl]-urea]
not listed: Kdr | Ret | Fak | Src | c-Raf-1
≥ 5.00: all other assays above

COCCNC(=O)Nc1cccc(C(=O)c2c[nH]c3ncc(-c4cccnc4)cc23)c1 [Compound P-1566, 1-(2-Methoxy-ethyl)-3-[3-(5-pyridin-3-yl-1H-pyrrolo[2,3-b]pyridine-3-carbonyl)-phenyl]-urea]
≥ 5.00: B-Raf | B-Raf V600E | Flt1 | Fms | Jnk1 | Jnk2 | Jnk3 | Kit

CCCCNC(=O)Nc1ccc(F)c(C(=O)c2c[nH]c3ncc(OC)cc23)c1F [Compound P-1567, 1-Butyl-3-[2,4-difluoro-3-(5-methoxy-1H-pyrrolo[2,3-b]pyridine-3-carbonyl)-phenyl]-urea]
≥ 5.00: B-Raf | B-Raf V600E | Flt1 | Fms | Jnk1 | Jnk2 | Jnk3 | Kit

CCCCNC(=O)n1ccc2c(C(=O)c3c[nH]c4ncc(-c5ccccc5)cc34)cccc21 [Compound P-1576, 4-(5-Phenyl-1H-pyrrolo[2,3-b]pyridine-3-carbonyl)-indole-1-carboxylic acid butylamide]
≥ 5.00: B-Raf | B-Raf V600E | Flt1 | Fms | Jnk1 | Jnk2 | Jnk3 | Kit

O=C(Nc1ccccc1)Nc1cccc(C(=O)c2c[nH]c3ncc(-c4cccnc4)cc23)c1 [Compound P-1591, 1-Phenyl-3-[3-(5-pyridin-3-yl-1H-pyrrolo[2,3-b]pyridine-3-carbonyl)-phenyl]-urea]
not listed: Kdr | Ret | Fak | Src | c-Raf-1
≥ 5.00: all other assays above

CCCS(=O)(=O)Nc1ccc(F)c(C(=O)c2c[nH]c3ncc(-c4cnn(C)c4)cc23)c1F [Compound P-1864, Propane-1-sulfonic acid {2,4-difluoro-3-[5-(1-methyl-1H-pyrazol-4-yl)-1H-pyrrolo[2,3-b]pyridine-3-carbonyl]-phenyl}-amide]
≥ 5.00: B-Raf | B-Raf V600E | c-Raf-1 | Fms | Jnk1 | Jnk2 | Jnk3 | Kit
